Measurements from patent publication US9452170B2, “Compounds and methods for inducing chondrogenesis” (The California Institute for Biomedical Research, priority 2013, dated 2016).

System: Human MSCs
Assay: Human chondrocyte differentiation assay (immunostaining for type II collagen, Sox9 and COMP)
Assay type: cell-based
Conditions: 168 h, compound 1 μM, 7 days, vs DMSO vehicle, read-out: Biological Activity (increase in staining intensity compared to vehicle control)
Description: Human MSCs (50,000) were plated into each well of a 96-well plate and cultured overnight. Compounds (in DMSO solution) were added to the cells at a final concentration of 1 μM, and the cells were cultured for 7 days at 5% CO2, 37° C. The cells were fixed with 10% formalin solution at room temperature for 10 min, and immunostained using antibodies specific for type II collagen (Abcam), Sox9 (Santa Cruz) and cartilage oligomeric matrix protein (COMP, Santa Cruz), and fluorescently labeled secondary antibodies (Li-Cor). The total intensity of the staining was measured using Oddyssey CLx imaging system (Li-Cor). Vehicle (DMSO) was used as control to determine the basal level of chondrocyte differentiation. […] Representative data are shown in Table 1 [A: >50% increase in staining intensity compared to vehicle control; B: 30-50% increase in staining intensity compared to vehicle control].

Structure (SMILES) | activation at 1 µM
N#Cc1ccccc1C(=O)CC1OC(=O)c2ccccc21 (centres unmarked) [Compound 40] | 30 to 50%
CC(CO)c1ccc(NC(=O)c2ccccc2C(=O)O)cc1 (centres unmarked) [Compound 84] | > 50%
CS(=O)(=O)c1ccc(C(=O)CC2OC(=O)c3ccccc32)cc1 (centres unmarked) [Compound 44] | 30 to 50%
COc1cccc(NC(=O)c2ccccc2C(=O)O)c1 [Compound 48] | 30 to 50%
COc1cc(NC(=O)c2ccccc2C(=O)O)ccc1CCCO [Compound 178] | 30 to 50%
NCc1cccc(NC(=O)c2ccccc2C(=O)O)c1 [Compound 71] | > 50%
N#Cc1ccc(F)c(NC(=O)c2ccccc2C(=O)O)c1 [Compound 34] | 30 to 50%
O=C(O)c1ccccc1C(=O)NCCOc1ccccc1 [Compound 81] | 30 to 50%
COC(=O)c1ccccc1NC(=O)Nc1ccc2ccccc2c1 [Compound 201] | 30 to 50%
CN(C(N)=O)c1ccccc1C(=O)Nc1ccc(C#N)cc1 [Compound 75] | 30 to 50%
CC(=O)c1ccc(OC(F)F)c(NC(=O)c2ccccc2C(=O)O)c1 [Compound 14] | 30 to 50%
COC(=O)c1ccccc1NC(=O)Nc1ccccc1C [Compound 197] | 30 to 50%
O=C(O)c1ccccc1C(=O)NCc1ccccc1OC(F)F [Compound 86] | 30 to 50%
O=C(O)c1ccccc1C(=O)Nc1cc(Cl)cc(C(F)(F)F)c1 [Compound 12] | 30 to 50%
N#Cc1cc(NC(=O)c2ccccc2C(=O)O)cc(C(F)(F)F)c1 [Compound 9] | > 50%
O=C(Nc1ccc(CCCO)cc1)c1cccc(F)c1C(=O)O [Compound 181] | 30 to 50%
CN(c1cccc(NC(=O)c2ccccc2C(=O)O)c1)S(C)(=O)=O [Compound 107] | 30 to 50%
N#Cc1cc(F)cc(NC(=O)c2ccccc2C(=O)O)c1 [Compound 37] | > 50%
O=C(O)c1cc(F)ccc1C(=O)Nc1ccc(CCCO)cc1 [Compound 180] | 30 to 50%
O=C(O)c1ccccc1C(=O)Nc1ccc(OCCO)cc1 [Compound 105] | 30 to 50%
Cc1cc(NC(=O)c2ccccc2C(=O)O)n[nH]1 [Compound 82] | > 50%
COc1ccc(C(=O)NCc2ccc(C(=O)O)cc2)c(C(=O)O)c1 [Compound 106] | 30 to 50%
Cc1cnccc1NC(=O)c1ccccc1C(=O)O [Compound 67] | > 50%

Structure (SMILES) | activation at 1 µM
O=C(O)c1ccc(CNC(=O)c2cccc(F)c2C(=O)O)cc1 [Compound 93] | 30 to 50%
CC(=O)Cc1ccc(CNC(=O)c2ccccc2C(=O)O)cc1 [Compound 166] | 30 to 50%
O=C(O)c1ccccc1C(=O)Nc1ccccc1OC(F)(F)F [Compound 17] | 30 to 50%
NC(=O)c1ccc(CNC(=O)c2ccccc2C(=O)O)cc1 [Compound 172] | 30 to 50%
O=C(O)c1ccccc1C(=O)Nc1ccc2c(c1)OCCO2 [Compound 64] | 30 to 50%
O=C(O)c1ccccc1NC(=O)c1ccccc1C(=O)O [Compound 55] | > 50%
O=C(O)c1ccccc1C(=O)Nc1ccc(C(F)(F)F)c(F)c1 [Compound 10] | 30 to 50%
O=C(O)c1cccc(Cl)c1C(=O)Nc1ccc(CCCO)cc1 [Compound 186] | 30 to 50%
O=C(CC1NC(=O)c2ccccc21)c1ccc(C(F)(F)F)cc1 (centres unmarked) [Compound 42] | 30 to 50%
O=C(O)c1ccc(CNC(=O)c2c(F)cccc2C(=O)O)cc1 [Compound 94] | 30 to 50%
N#Cc1cccc(NC(=O)c2ccccc2C(=O)O)c1F [Compound 35] | 30 to 50%
Cc1ccccc1NC(=O)Nc1ccccc1C(=O)O [Compound 199] | 30 to 50%
N#Cc1cccc(C(=O)CC2NC(=O)c3ccccc32)c1 (centres unmarked) [Compound 39] | 30 to 50%
COc1ccc2c(c1)C(=O)N(c1ccc(C(=O)O)cc1)C2=O [Compound 16] | > 50%
COC(=O)N(C)Cc1cccc(NC(=O)c2ccccc2C(=O)O)c1 [Compound 49] | 30 to 50%
CC(O)Cc1ccc(NC(=O)c2ccccc2C(=O)O)cc1 (centres unmarked) [Compound 52] | 30 to 50%
COc1ccccc1NC(=O)c1ccccc1C(=O)O [Compound 68] | > 50%
O=C(Nc1ccccc1S(=O)(=O)N1CCOCC1)c1cccc(F)c1 [Compound 110] | 30 to 50%
O=C(O)c1ccc(S(=O)(=O)Nc2ccccc2C(=O)O)cc1 [Compound 53] | 30 to 50%
COC(=O)c1ccccc1NC(=O)Nc1ccc(C(C)=O)cc1 [Compound 206] | 30 to 50%
O=C(O)Cc1ccccc1C(=O)Nc1ccc(CCO)cc1 [Compound 47] | 30 to 50%
CC(=O)c1cccc(NC(=O)Nc2ccccc2C(=O)O)c1 [Compound 204] | 30 to 50%
O=C(O)c1cc(CCCO)ccc1NC(=O)c1ccccc1C(=O)O [Compound 176] | 30 to 50%

Structure (SMILES) | activation at 1 µM
N#Cc1cc(NC(=O)c2ccccc2C(=O)O)ccc1Cl [Compound 2] | 30 to 50%
CNS(=O)(=O)c1ccc(N2CCCC2=O)cc1 [Compound 28] | 30 to 50%
Cc1ncsc1NC(=O)c1ccccc1C(=O)O [Compound 22] | 30 to 50%
CC(=O)c1cc(NC(=O)c2ccccc2C(=O)O)ccc1Cl [Compound 5] | 30 to 50%
CS(=O)(=O)NCc1cccc(NC(=O)c2ccccc2C(=O)O)c1 [Compound 72] | > 50%
COCCc1ccc(NC(=O)c2ccccc2NS(=O)(=O)C(C)C)cc1 [Compound 162] | 30 to 50%
NC(=O)Cc1ccc(NC(=O)c2ccccc2C(=O)O)cc1 [Compound 51] | 30 to 50%
Cc1ccc2c(c1)C(=O)N(c1ccc(C(=O)O)cc1)C2=O [Compound 33] | 30 to 50%
CS(=O)(=O)Nc1ccccc1C(=O)NCc1ccc(C(=O)O)cc1 [Compound 120] | 30 to 50%
CC(=O)c1ccccc1NC(=O)Nc1ccccc1C(=O)O [Compound 205] | 30 to 50%
N#Cc1ccc(NC(=O)c2ccccc2-c2ccccc2C(=O)O)cc1 [Compound 61] | > 50%
COC(=O)c1ccccc1NC(=O)Nc1cccc(C(C)=O)c1 [Compound 193] | 30 to 50%
COC(=O)c1ccccc1NC(=O)Nc1ccccc1 [Compound 200] | 30 to 50%
O=C(O)c1ccccc1C(=O)Nc1cccc(C(F)(F)F)c1 [Compound 18] | > 50%
CCCS(=O)(=O)Nc1ccccc1C(=O)Nc1ccc(CCOC)cc1 [Compound 159] | 30 to 50%
O=C(O)c1ccccc1C(=O)Nc1nccs1 [Compound 29] | 30 to 50%
CC(=O)c1ccc(Cl)c(NC(=O)c2ccccc2C(=O)O)c1 [Compound 4] | > 50%
COc1cccc(C(=O)NCc2ccc(C(=O)O)cc2)c1C(=O)O [Compound 103] | > 50%
N#Cc1ccc(C(=O)Nc2cnccc2C(=O)O)cc1 [Compound 54] | 30 to 50%
O=C(Nc1ccccc1S(=O)(=O)N1CCOCC1)c1ccc(-c2ccccc2)cc1 [Compound 133] | 30 to 50%
O=C(O)c1ccc(F)cc1C(=O)Nc1ccc(CCCO)cc1 [Compound 183] | 30 to 50%
N#Cc1cc(Cl)cc(NC(=O)c2ccccc2C(=O)O)c1 [Compound 3] | > 50%
O=C(O)c1ccccc1C(=O)Nc1ccc(-c2ncc[nH]2)cc1 [Compound 74] | 30 to 50%

Structure (SMILES) | activation at 1 µM
COC(=O)c1ccccc1NC(=O)Nc1ccc(C)cc1 [Compound 198] | 30 to 50%
N#Cc1ccc(NC(=O)c2ccccc2NS(=O)(=O)c2ccccc2)cc1 [Compound 77] | > 50%
O=C(O)c1ccc(C(=O)Nc2ccccc2S(=O)(=O)N2CCOCC2)cc1 [Compound 147] | 30 to 50%
O=C(O)c1ccccc1C(=O)Nc1ccc(CCCO)cc1OC(F)(F)F [Compound 148] | 30 to 50%
O=C(Nc1ccccc1S(=O)(=O)N1CCS(=O)(=O)CC1)c1ccc(F)cc1 [Compound 141] | 30 to 50%
O=C(O)c1cccc(F)c1C(=O)Nc1ccc(CCCO)cc1 [Compound 182] | 30 to 50%
O=C(O)c1ccccc1C(=O)Nc1ccccc1CCO [Compound 57] | 30 to 50%
CN(C)S(=O)(=O)c1ccccc1NC(=O)c1ccc(C#N)cc1 [Compound 56] | > 50%
N#Cc1ccc(C(=O)CC2OC(=O)c3ccccc32)cc1 (centres unmarked) [Compound 25] | 30 to 50%
COc1cc(CNC(=O)c2ccccc2C(=O)O)ccc1C(=O)O [Compound 154] | 30 to 50%
NS(=O)(=O)c1ccc(N2Cc3ccccc3C2=O)cc1 [Compound 26] | 30 to 50%
NS(=O)(=O)c1ccc(N2C(=O)c3ccccc3C2=O)cc1 [Compound 15] | 30 to 50%
COCCS(=O)(=O)Nc1ccccc1C(=O)Nc1ccc(C#N)cc1 [Compound 79] | 30 to 50%
N#Cc1cc(Cl)ccc1NC(=O)c1ccccc1C(=O)O [Compound 8] | 30 to 50%
CS(=O)(=O)Nc1ccccc1C(=O)Nc1ccc(Br)cc1 [Compound 46] | 30 to 50%
Cc1cccc(C(=O)O)c1C(=O)Nc1ccc(CCCO)cc1 [Compound 190] | > 50%
O=C(O)Cc1ccc(CNC(=O)c2ccccc2C(=O)O)cc1 [Compound 164] | > 50%
COc1ccc(C#N)cc1NC(=O)c1ccccc1C(=O)O [Compound 6] | > 50%
C/C(=N\O)c1cccc(NC(=O)c2ccccc2C(=O)O)c1 [Compound 58] | 30 to 50%
O=C(Nc1cccc(C(F)(F)F)c1)Nc1ccccc1C(=O)O [Compound 196] | 30 to 50%
